# Data: patent US20230219965A1 (KSQ Therapeutics, Inc., priority 2020, published 2023)
# pIC50: −log10 of the molar value. Where two headings read alike, the source gives them in different places.
# Key:
# USP1/UAF1 enzyme = USP1/UAF1 enzyme (Homo sapiens, UniProt O94782); test: USP1/UAF1 deubiquitination assay (ubiquitin-rhodamine 110 substrate); assay type: biochemical; settings: read-out: USP1 IC50 (Ub-Rho)
# How it was run: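 Cleavage of 150 nM ubiquitin-rhodamine 110 by 0.05 nM USP1/UAF1 was followed as fluorescence (Ex480/Em540, kinetic, 30 min) in Tris-HCl pH 7.8 buffer with EDTA, BSA, DTT and Tween-20. Compounds, top 10 μM, were preincubated with enzyme 10 min; % inhibition against no-enzyme and DMSO wells gave four-parameter IC50s.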
# [1] = tested on: Ub-PCNA levels in the nucleus of ES2 cells (USP1 activity); test: ES2 Ub-PCNA immunofluorescence (IF) assay; assay type: cell-based; settings: Homo sapiens, ES-2; ES2 cells, 3 hours, Ub-PCNA immunofluorescence; read-out: USP1 IC50 (Ub-PCNA)
# How it was run: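 AC50 derived from percent Ub-PCNA-positive nuclei, positivity set by a 95% cutoff from untreated-well intensities. Readout by imaging immunofluorescence (anti-Ub-PCNA, DAPI nuclear mask) after methanol fixation. Compound exposure: 3 h at 37° C, 0.3% DMSO final, on cells plated overnight.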
# [2] = ADME solubility determination in PBS at pH 2.0 and pH 7.4; assay type: physicochemical; settings: phosphate buffered saline, 25 °C, thermodynamic from solid
# How it was run: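 Solubility was read by LC-MS/MS on centrifuged supernatants, calibrated to a known-concentration standard and corrected for dilution. Compound, dried down from 10 mM DMSO stock, was equilibrated 24 h at 25° C with shaking in PBS at pH 2.0 or pH 7.4.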
# [3] = Liver microsomal metabolic stability, rat liver microsomes (RLM); settings: rat, liver microsomes, t1/2 (min) in RLM, 1 μM compound, 1 mg/mL microsomes, NADPH
# [4] = Liver microsomal metabolic stability, human liver microsomes (HLM); settings: human, liver microsomes
# [5] = pH 2, aqueous buffer, PBS pH 2.0, 25° C., read-out: Solubility at pH 2.0
# [6] = pH 7.4, aqueous buffer, PBS pH 7.4, 25° C., read-out: Solubility at pH 7.4
# Sequence of USP1/UAF1 enzyme (O94782 whole entry): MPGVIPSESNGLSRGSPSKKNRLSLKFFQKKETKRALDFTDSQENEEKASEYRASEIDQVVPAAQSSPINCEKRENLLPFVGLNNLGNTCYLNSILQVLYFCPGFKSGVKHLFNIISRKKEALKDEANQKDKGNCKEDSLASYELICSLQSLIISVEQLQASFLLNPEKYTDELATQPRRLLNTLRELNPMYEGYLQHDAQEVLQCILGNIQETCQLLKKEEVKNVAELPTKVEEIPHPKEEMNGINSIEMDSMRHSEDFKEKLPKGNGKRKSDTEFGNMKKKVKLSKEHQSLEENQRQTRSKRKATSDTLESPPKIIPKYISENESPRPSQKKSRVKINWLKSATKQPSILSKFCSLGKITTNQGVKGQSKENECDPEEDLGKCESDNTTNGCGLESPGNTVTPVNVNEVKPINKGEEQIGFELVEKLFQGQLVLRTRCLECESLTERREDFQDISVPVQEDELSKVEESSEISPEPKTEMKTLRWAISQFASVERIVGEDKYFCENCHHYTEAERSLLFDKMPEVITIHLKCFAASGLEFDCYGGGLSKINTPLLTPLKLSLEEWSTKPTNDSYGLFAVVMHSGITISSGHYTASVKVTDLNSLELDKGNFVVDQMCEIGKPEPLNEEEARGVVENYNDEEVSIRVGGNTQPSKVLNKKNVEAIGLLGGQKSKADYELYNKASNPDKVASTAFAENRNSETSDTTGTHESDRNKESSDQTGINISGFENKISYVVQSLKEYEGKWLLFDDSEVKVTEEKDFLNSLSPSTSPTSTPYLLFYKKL
# Sequence of USP1/UAF1 enzyme (Q8TAF3 whole entry partner): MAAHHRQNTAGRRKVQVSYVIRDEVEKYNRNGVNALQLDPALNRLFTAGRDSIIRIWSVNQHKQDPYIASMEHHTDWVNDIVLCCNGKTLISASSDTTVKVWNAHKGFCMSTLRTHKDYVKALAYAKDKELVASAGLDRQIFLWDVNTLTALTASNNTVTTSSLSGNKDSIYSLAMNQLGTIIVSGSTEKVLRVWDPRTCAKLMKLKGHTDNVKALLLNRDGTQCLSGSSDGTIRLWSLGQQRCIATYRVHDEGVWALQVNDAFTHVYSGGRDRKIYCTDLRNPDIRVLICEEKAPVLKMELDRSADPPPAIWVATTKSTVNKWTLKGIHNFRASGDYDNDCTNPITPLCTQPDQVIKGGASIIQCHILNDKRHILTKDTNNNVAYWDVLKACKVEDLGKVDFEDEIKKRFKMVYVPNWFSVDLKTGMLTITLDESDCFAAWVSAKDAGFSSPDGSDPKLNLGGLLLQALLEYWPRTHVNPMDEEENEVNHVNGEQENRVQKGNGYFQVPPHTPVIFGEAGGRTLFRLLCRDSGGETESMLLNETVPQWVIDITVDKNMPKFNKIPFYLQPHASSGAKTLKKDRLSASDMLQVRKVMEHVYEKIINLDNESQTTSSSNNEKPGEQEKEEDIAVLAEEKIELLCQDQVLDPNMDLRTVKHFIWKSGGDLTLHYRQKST
pIC50 (USP1/UAF1 enzyme),pIC50 [1],"solubility at 24 h [2, 5] [µM]","solubility at 24 h [2, 6] [µM]",half-life at 1 μM [3] [min],half-life at 1 μM [4] [min],Compound
> 7.00,> 7.00,≥ 10,< 10,< 25,< 25,Cc1cnn(C(C)C)c1-c1cc2n(n1)CCCN2Cc1ccc(-c2nc(C(F)(F)F)cn2C(C)C)cc1 [Example 54]
> 7.00,> 7.00,≥ 10,< 10,< 25,< 25,Cc1cnn(C(C)C)c1-c1cc2n(n1)CCCN2Cc1ccc(-c2nc(C(F)(F)F)cn2C)c(F)c1 [Example 55]
> 7.00,> 7.00,< 10,< 10,< 25,< 25,CC(C)n1ncc(Cl)c1-c1cc2n(n1)CCCN2Cc1ccc(-c2nc(C(F)(F)F)cn2C)c(F)c1 [Example 61]
> 7.00,> 7.00,< 10,< 10,< 25,< 25,CC(C)n1ncc(Cl)c1-c1cc2n(n1)CCCN2Cc1ccc(-c2nc(C(F)(F)F)cn2CCF)cc1 [Example 62]
> 7.00,> 7.00,< 10,< 10,< 25,< 25,CCn1cc(C(F)(F)F)nc1-c1ccc(C(C)N2CCCn3nc(-c4c(Cl)cnn4C(C)C)cc32)cc1 (stereo not drawn) [Example 65]
6.30 to 7.00,< 6.30,< 10,< 10,< 25,< 25,Cc1cnn(C(C)C)c1-c1cc2n(n1)CCC(=O)N2Cc1ccc(-c2nc(C(F)(F)F)c[nH]2)cc1 [Example 70]
> 7.00,> 7.00,< 10,< 10,> 25,> 25,"CCn1cc(C(F)(F)F)nc1-c1ccc(CN2C(=O)CCn3nc(-c4c(OC)ncnc4C4CC4)cc32)cc1 [Example 71, 2-(4-cyclopropyl-6-methoxypyrimidin-5-yl)-4-(4-(1-ethyl-4-(trifluoromethyl)-1H-imidazol-2-yl)benzyl)-6,7-dihydropyrazolo[1,5-α]pyrimidin-5(4H)-one]"

# Second part, the compound before the results:
Compound,pIC50 (USP1/UAF1 enzyme),pIC50 [1],"solubility at 24 h [2, 5] [µM]","solubility at 24 h [2, 6] [µM]",half-life at 1 μM [3] [min],half-life at 1 μM [4] [min]
COc1cc(C(F)(F)F)nn1-c1ccc(CN2CCCn3nc(-c4c(C)cnn4C(C)C)cc32)cc1F [Example 57],> 7.00,> 7.00,< 10,< 10,< 25,< 25
COc1ncnc(C2CC2)c1-c1cc2n(n1)CCCN2Cc1ccc(-c2nc(C(F)(F)F)cn2C(C)C)cc1 [Example 58],> 7.00,> 7.00,≥ 10,< 10,< 25,< 25
CC(C)n1cc(C(F)(F)F)nc1-c1ccc(CN2CCCn3nc(-c4c(Cl)cnn4C(C)C)cc32)cc1F [Example 59],> 7.00,> 7.00,< 10,< 10,< 25,< 25
COc1ncnc(C2CC2)c1-c1cc2n(n1)CCCN2Cc1ccc(-c2nc(C(F)(F)F)cn2C(C)C)c(F)c1 [Example 63],> 7.00,> 7.00,≥ 10,< 10,< 25,< 25
CCn1cc(C(F)(F)F)nc1-c1ccc(CN2CCCn3nc(-c4c(OC)ncnc4C4CC4)cc32)cc1F [Example 64],> 7.00,> 7.00,≥ 10,< 10,< 25,< 25
CCn1cc(C(F)(F)F)nc1-c1ccc(C(C)N2CCCn3nc(-c4c(OC)ncnc4C4CC4)cc32)cc1 (stereo not drawn) [Example 66],> 7.00,> 7.00,≥ 10,< 10,< 25,< 25
